# Data published in patent publication US8952024B2, “Herbicidal pyrimidone derivatives” (E I du Pont de Nemours and Company, priority 2009, dated 2015).
# How the values were obtained:
# Experiment in all cases: Test D pre-/postemergence plant response
# Assay type in all cases: in vivo
# [1] = test system: johnsongrass (Sorghum halepense)
# Procedure, shortened: (§1)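 Both preemergence and postemergence treatments were made at the same time, with the compound in a non-phytotoxic, surfactant-containing solvent mixture. Plants grew in a greenhouse for 14–21 days before visual evaluation, scored from 0 (no effect) to 100 (complete control).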
# [2] = test system: itchgrass (Rottboellia cochinchinensis)
# Procedure, shortened: as §1
# [3] = test system: Surinam grass (Brachiaria decumbens)
# Procedure, shortened: as §1
# [4] = test system: mallow (common mallow, Malva sylvestris)
# Procedure, shortened: as §1
# [5] = test system: nutsedge (purple nutsedge, Cyperus rotundus)
# Procedure, shortened: as §1
# kochia (Kochia scoparia) = test system: kochia (Kochia scoparia)
# Procedure, shortened: as §1
# [6] = test system: black mustard (Brassica nigra)
# Procedure, shortened: as §1
# [7] = test system: sowthistle (common sowthistle, Sonchus oleraceous)
# Procedure, shortened: as §1
# [8] = test system: bluegrass (annual bluegrass, Poa annua)
# Procedure, shortened: as §1
# [9] = test system: green foxtail (Setaria viridis)
# Procedure, shortened: as §1
# [10] = test system: guineagrass (Panicum maximum)
# Procedure, shortened: as §1
# [11] = test system: large crabgrass (Digitaria sanguinalis)
# Procedure, shortened: as §1
# [12] = test system: chickweed (common chickweed, Stellaria media)
# Procedure, shortened: as §1
# [13] = test system: barnyardgrass (Echinochloa crus-galli)
# Procedure, shortened: as §1
# [14] = test system: signalgrass (broadleaf signalgrass, Brachiaria platyphylla)
# Procedure, shortened: as §1
# [15] = test system: goosegrass (Eleusine indica)
# Procedure, shortened: as §1
# [16] = test system: field bindweed (Convolvulus arvensis)
# Procedure, shortened: as §1
# [17] = test system: morningglory (pitted morningglory, Ipomoea lacunosa)
# Procedure, shortened: as §1
# [18] = Postemergence, 31 g ai/ha, scale 0 to 100
# [19] = Postemergence, 62 g ai/ha, scale 0 to 100 (0 no effect, 100 complete control)
# [20] = Postemergence, 125 g ai/ha, scale 0 to 100 (0 no effect, 100 complete control)
# [21] = Postemergence, 16 g ai/ha, scale 0 to 100
# [22] = Preemergence, 16 g ai/ha, scale 0 to 100, 0 no effect, 100 complete control
# [23] = Preemergence, 31 g ai/ha, scale 0 to 100 (0 no effect, 100 complete control)
# [24] = Preemergence, 62 g ai/ha, scale 0 to 100
# [25] = Preemergence, 125 g ai/ha, scale 0 to 100
# [26] = Postemergence, 31 g ai/ha, scale 0 to 100 (0 no effect, 100 complete control)
structure (smiles),measurement,setting,value
COCCn1c(-c2ccccc2)ncc(C(=O)C2=C(O)CCCC2=O)c1=O [Compound 85],"Plant response rating, Johnsongrass",[1]; [18],50
same,"Plant response rating, Johnsongrass",[1]; [19],80
same,"Plant response rating, Johnsongrass",[1]; [20],80
same,"Plant response rating, Johnsongrass",[1]; [21],35
same,"Plant response rating, Johnsongrass",[1]; [22],50
same,"Plant response rating, Johnsongrass",[1]; [23],65
same,"Plant response rating, Johnsongrass",[1]; [24],80
same,"Plant response rating, Johnsongrass",[1]; [25],95
same,"Plant response rating, Itchgrass",[2]; [18],35
same,"Plant response rating, Itchgrass",[2]; [19],65
same,"Plant response rating, Itchgrass",[2]; [20],70
same,"Plant response rating, Itchgrass",[2]; [21],30
same,"Plant response rating, Itchgrass",[2]; [22],10
same,"Plant response rating, Itchgrass",[2]; [23],15
same,"Plant response rating, Itchgrass",[2]; [24],35
same,"Plant response rating, Itchgrass",[2]; [25],50
same,"Plant response rating, Surinam Grass",[3]; [18],75
same,"Plant response rating, Surinam Grass",[3]; [19],75
same,"Plant response rating, Surinam Grass",[3]; [20],85
same,"Plant response rating, Surinam Grass",[3]; [22],98
same,"Plant response rating, Surinam Grass",[3]; [23],100
same,"Plant response rating, Surinam Grass",[3]; [25],100
same,"Plant response rating, Mallow",[4]; [18],65
same,"Plant response rating, Mallow",[4]; [19],70
same,"Plant response rating, Mallow",[4]; [20],75
same,"Plant response rating, Mallow",[4]; [21],60
same,"Plant response rating, Mallow",[4]; [22],80
same,"Plant response rating, Mallow",[4]; [24],95
same,"Plant response rating, Mallow",[4]; [25],98
same,"Plant response rating, Nutsedge, Purple",[5]; [18],30
same,"Plant response rating, Nutsedge, Purple",[5]; [19],50
same,"Plant response rating, Nutsedge, Purple",[5]; [20],65
same,"Plant response rating, Nutsedge, Purple",[5]; [21],5
same,"Plant response rating, Nutsedge, Purple",[5]; [22],70
same,"Plant response rating, Nutsedge, Purple",[5]; [23],75
same,"Plant response rating, Nutsedge, Purple",[5]; [24],95
same,"Plant response rating, Nutsedge, Purple",[5]; [25],95
same,"Plant response rating, Kochia",kochia (Kochia scoparia); [18],10
same,"Plant response rating, Kochia",kochia (Kochia scoparia); [19],20
same,"Plant response rating, Kochia",kochia (Kochia scoparia); [20],60
same,"Plant response rating, Kochia",kochia (Kochia scoparia); [21],0
same,"Plant response rating, Kochia",kochia (Kochia scoparia); [22],5
same,"Plant response rating, Kochia",kochia (Kochia scoparia); [23],20
same,"Plant response rating, Kochia",kochia (Kochia scoparia); [24],75
same,"Plant response rating, Kochia",kochia (Kochia scoparia); [25],95
same,"Plant response rating, Black Mustard",[6]; [26],60
same,"Plant response rating, Black Mustard",[6]; [19],75
same,"Plant response rating, Black Mustard",[6]; [20],85
same,"Plant response rating, Black Mustard",[6]; [21],35
same,"Plant response rating, Black Mustard",[6]; [22],50
same,"Plant response rating, Black Mustard",[6]; [23],60
same,"Plant response rating, Black Mustard",[6]; [24],98
same,"Plant response rating, Black Mustard",[6]; [25],100
same,"Plant response rating, Sowthistle",[7]; [18],100
same,"Plant response rating, Sowthistle",[7]; [19],100
same,"Plant response rating, Sowthistle",[7]; [20],100
same,"Plant response rating, Sowthistle",[7]; [21],100
same,"Plant response rating, Sowthistle",[7]; [22],100
same,"Plant response rating, Sowthistle",[7]; [23],100
same,"Plant response rating, Sowthistle",[7]; [25],100
same,"Plant response rating, Bluegrass",[8]; [26],0
same,"Plant response rating, Bluegrass",[8]; [19],5
same,"Plant response rating, Bluegrass",[8]; [20],5
same,"Plant response rating, Bluegrass",[8]; [21],0
same,"Plant response rating, Bluegrass",[8]; [22],0
same,"Plant response rating, Bluegrass",[8]; [23],0
same,"Plant response rating, Bluegrass",[8]; [24],0
same,"Plant response rating, Bluegrass",[8]; [25],15
same,"Plant response rating, Foxtail, Green",[9]; [18],25
same,"Plant response rating, Foxtail, Green",[9]; [19],35
same,"Plant response rating, Foxtail, Green",[9]; [20],65
same,"Plant response rating, Foxtail, Green",[9]; [21],20
same,"Plant response rating, Foxtail, Green",[9]; [22],0
same,"Plant response rating, Foxtail, Green",[9]; [23],5
same,"Plant response rating, Foxtail, Green",[9]; [24],40
same,"Plant response rating, Foxtail, Green",[9]; [25],70
same,"Plant response rating, Guineagrass",[10]; [18],20
same,"Plant response rating, Guineagrass",[10]; [19],35
same,"Plant response rating, Guineagrass",[10]; [20],60
same,"Plant response rating, Guineagrass",[10]; [21],10
same,"Plant response rating, Guineagrass",[10]; [22],0
same,"Plant response rating, Guineagrass",[10]; [23],10
same,"Plant response rating, Guineagrass",[10]; [24],70
same,"Plant response rating, Guineagrass",[10]; [25],75
same,"Plant response rating, Crabgrass, Large",[11]; [18],60
same,"Plant response rating, Crabgrass, Large",[11]; [19],75
same,"Plant response rating, Crabgrass, Large",[11]; [20],75
same,"Plant response rating, Crabgrass, Large",[11]; [21],60
same,"Plant response rating, Crabgrass, Large",[11]; [22],95
same,"Plant response rating, Crabgrass, Large",[11]; [23],98
same,"Plant response rating, Crabgrass, Large",[11]; [24],100
same,"Plant response rating, Crabgrass, Large",[11]; [25],100
same,"Plant response rating, Chickweed",[12]; [18],80
same,"Plant response rating, Chickweed",[12]; [19],100
same,"Plant response rating, Chickweed",[12]; [20],100
same,"Plant response rating, Chickweed",[12]; [22],90
same,"Plant response rating, Chickweed",[12]; [23],100
same,"Plant response rating, Chickweed",[12]; [24],100
same,"Plant response rating, Chickweed",[12]; [25],100
same,"Plant response rating, Barnyardgrass",[13]; [26],50
same,"Plant response rating, Barnyardgrass",[13]; [19],65
same,"Plant response rating, Barnyardgrass",[13]; [20],70
same,"Plant response rating, Barnyardgrass",[13]; [21],30
same,"Plant response rating, Barnyardgrass",[13]; [22],60
same,"Plant response rating, Barnyardgrass",[13]; [23],75
same,"Plant response rating, Barnyardgrass",[13]; [24],95
same,"Plant response rating, Barnyardgrass",[13]; [25],98
same,"Plant response rating, Signalgrass",[14]; [18],35
same,"Plant response rating, Signalgrass",[14]; [19],60
same,"Plant response rating, Signalgrass",[14]; [20],75
same,"Plant response rating, Signalgrass",[14]; [21],20
same,"Plant response rating, Signalgrass",[14]; [22],5
same,"Plant response rating, Signalgrass",[14]; [23],60
same,"Plant response rating, Signalgrass",[14]; [25],95
same,"Plant response rating, Goosegrass",[15]; [18],65
same,"Plant response rating, Goosegrass",[15]; [19],75
same,"Plant response rating, Goosegrass",[15]; [20],75
same,"Plant response rating, Goosegrass",[15]; [21],40
same,"Plant response rating, Goosegrass",[15]; [22],65
same,"Plant response rating, Goosegrass",[15]; [23],75
same,"Plant response rating, Goosegrass",[15]; [24],75
same,"Plant response rating, Goosegrass",[15]; [25],98
same,"Plant response rating, Field Bindweed",[16]; [18],75
same,"Plant response rating, Field Bindweed",[16]; [19],75
same,"Plant response rating, Field Bindweed",[16]; [20],75
same,"Plant response rating, Field Bindweed",[16]; [21],65
same,"Plant response rating, Field Bindweed",[16]; [22],50
same,"Plant response rating, Field Bindweed",[16]; [23],70
same,"Plant response rating, Field Bindweed",[16]; [24],70
same,"Plant response rating, Field Bindweed",[16]; [25],98
same,"Plant response rating, Morningglory",[17]; [18],70
same,"Plant response rating, Morningglory",[17]; [19],75
same,"Plant response rating, Morningglory",[17]; [20],90
same,"Plant response rating, Morningglory",[17]; [21],70
same,"Plant response rating, Morningglory",[17]; [23],70
same,"Plant response rating, Morningglory",[17]; [24],90
same,"Plant response rating, Morningglory",[17]; [25],100
